Like-named read-outs stand apart in the source and are kept apart here. Where no end group is shown, it is not given here.
Experiments:
Experiment in all cases: Direct-binding FRET assay
[1] = target: T1, ATF3 (Homo sapiens, UniProt P18847); details: read-out: Kd
T1 construct: made in house
T1 sequence (P18847 86-149 limits assumed): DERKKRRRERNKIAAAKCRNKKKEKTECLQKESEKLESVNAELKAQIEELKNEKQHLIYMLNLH
Protocol: (§1) The direct binding assay was performed manually in 384-well plates and is similar to a previously described assay. Wells were filled with 20 μL of 1 mM TCEP-HCl. A 4 μM stock of acceptor protein was made fresh in 1 mM TCEP-HCl, and 20 μL was titrated in 2-fold dilutions over the wells. […] The direct-binding FRET data were fit as previously described. Briefly, the Kd of the designed peptide homodimer was experimentally determined and used with previously determined target homodimer Kd values to determine the heterodimer Kd. The homodimer Kd values used for the human bZIPs were from; experiments done by […] et al. used the same protein constructs for the human bZIP proteins, the same buffer conditions, and the same assay. The fitting used a system of ordinary differential equations to describe the concentrations of homo and heterodimers formed by the donor (D) and acceptor (A) as a function of the heterodimer Kd. MATLAB was used to simulate the binding experiment for different Kd values, and the value that gave the best agreement between simulation and experiment was assigned. A minimum 15% change in the donor fluorescence upon titrating the acceptor peptide from 0 to 1000 nM was required for a fit to be attempted. If this minimum was not met, the interaction was classified as “NS” for no signal change. […] For such curves, we removed the first five points and re-fit the data.

[2] = target: T2, NFE2 (Homo sapiens, UniProt Q16621); details: read-out: Kd
T2 construct: made in house
T2 sequence (Q16621 266-329 limits assumed): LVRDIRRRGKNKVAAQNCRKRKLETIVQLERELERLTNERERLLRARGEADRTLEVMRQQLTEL
Protocol: as §1

[3] = target: T3, ATF4 (Homo sapiens, UniProt P18848); details: mean or single, read-out: Kd
T3 construct: made in house
T3 sequence (P18848 278-341 limits assumed): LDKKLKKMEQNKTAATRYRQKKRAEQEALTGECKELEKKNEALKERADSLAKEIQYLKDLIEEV
Protocol: as §1

[4] = target: T4, CREB1 (Homo sapiens, UniProt P16220); details: mean or single, read-out: Kd
T4 construct: made in house
T4 sequence (P16220 269-327 limits assumed): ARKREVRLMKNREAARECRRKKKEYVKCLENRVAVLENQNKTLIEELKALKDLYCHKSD
Protocol: as §1

[5] = target: T5, NFE2L3 (Homo sapiens, UniProt Q9Y4A8); details: mean or single, read-out: Kd
T5 construct: made in house
T5 sequence (Q9Y4A8 578-641 limits assumed): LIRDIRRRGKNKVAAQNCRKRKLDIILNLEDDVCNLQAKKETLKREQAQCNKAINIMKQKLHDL
Protocol: as §1

[6] = target: T6, XBP1 (Homo sapiens, UniProt P17861); details: 23°C, N-terminal rhodamine design, read-out: Kd
T6 construct: made in house
T6 sequence (P17861 70-133 limits assumed): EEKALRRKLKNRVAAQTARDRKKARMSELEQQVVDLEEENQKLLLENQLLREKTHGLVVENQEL
Protocol: as §1

[7] = target: T7, MAFF (Homo sapiens, UniProt Q9ULX9); details: read-out: Kd
T7 construct: made in house
T7 sequence (Q9ULX9 51-114 limits assumed): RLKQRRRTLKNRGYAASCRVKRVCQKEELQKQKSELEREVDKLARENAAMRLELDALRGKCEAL
Protocol: as §1

[8] = target: JUN (Homo sapiens, UniProt P05412); set-up: made in house; details: mean or single, read-out: Kd
Protocol: as §1

[9] = target: FOS (Homo sapiens, UniProt P01100); set-up: made in house; details: read-out: Kd
Protocol: as §1

[10] = target: ATF6B (Homo sapiens, UniProt Q99941); set-up: made in house; details: read-out: Kd
Protocol: as §1

[11] = target: MAFG (Homo sapiens, UniProt O15525); set-up: made in house; details: read-out: Kd
Protocol: as §1

[12] = 4°C, C-terminal fluorescein design as donor, TAMRA target titrated
[13] = 4°C, C-terminal rhodamine design, mean or single
[14] = 4°C, N-terminal rhodamine design, mean or single
[15] = 23°C, C-terminal fluorescein design as donor, TAMRA target titrated
[16] = 23°C, C-terminal rhodamine design, mean or single
[17] = 23°C, N-terminal rhodamine design, mean or single
[18] = 37°C, C-terminal fluorescein design as donor, TAMRA target titrated
[19] = 37°C, C-terminal rhodamine design, mean or single
[20] = 37°C, N-terminal rhodamine design, mean or single
[21] = 4°C, C-terminal rhodamine design
[22] = 4°C, N-terminal rhodamine design
[23] = 23°C, C-terminal rhodamine design
[24] = 23°C, N-terminal rhodamine design
[25] = 37°C, C-terminal rhodamine design
[26] = 37°C, N-terminal rhodamine design

Chain of MAFG (O15525 51-114 limits assumed): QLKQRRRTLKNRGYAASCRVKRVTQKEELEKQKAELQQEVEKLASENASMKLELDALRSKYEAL
Chain of ATF6B (Q99941 325-388 limits assumed): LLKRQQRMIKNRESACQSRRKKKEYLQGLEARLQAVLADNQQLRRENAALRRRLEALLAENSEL
Chain of FOS (P01100 137-200 limits assumed): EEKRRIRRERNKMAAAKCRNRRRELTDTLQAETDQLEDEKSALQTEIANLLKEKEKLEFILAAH
Chain of JUN (P05412 252-315 limits assumed): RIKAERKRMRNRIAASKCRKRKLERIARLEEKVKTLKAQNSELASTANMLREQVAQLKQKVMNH

Kd [1, 12]: > 1000 nM
Kd [1, 13]: > 1000 nM
Kd [1, 14]: > 1000 nM
Kd [1, 15]: > 1000 nM
Kd [1, 16]: > 1000 nM
Kd [1, 17]: > 1000 nM
Kd [1, 18]: > 1000 nM
Kd [1, 19]: > 1000 nM
Kd [1, 20]: > 1000 nM
Kd [2, 12]: > 1000 nM
Kd [2, 13]: > 1000 nM
Kd [2, 14]: > 1000 nM
Kd [2, 15]: > 1000 nM
Kd [2, 16]: > 1000 nM
Kd [2, 17]: > 1000 nM
Kd [2, 18]: > 1000 nM
Kd [2, 19]: > 1000 nM
Kd [2, 20]: > 1000 nM
Kd [3, 21]: > 1000 nM
Kd [3, 22]: > 1000 nM
Kd [3, 23]: > 1000 nM
Kd [3, 24]: > 1000 nM
Kd [3, 25]: > 1000 nM
Kd [3, 26]: > 1000 nM
Kd [4, 21]: > 5000 nM
Kd [4, 22]: > 1000 nM
Kd [4, 23]: > 1000 nM
Kd [4, 24]: > 1000 nM
Kd [4, 25]: > 1000 nM
Kd [4, 26]: > 1000 nM
Kd [5, 21]: > 1000 nM
Kd [5, 22]: > 1000 nM
Kd [5, 23]: > 1000 nM
Kd [5, 24]: > 1000 nM
Kd [5, 25]: > 5000 nM
Kd [5, 26]: > 1000 nM
Kd ([6]; repeat 1): > 1000 nM
Kd ([6]; repeat 2): > 1000 nM
Kd ([6]; repeat 3): > 1000 nM
Kd [7, 12]: > 1000 nM
Kd [7, 13]: > 1000 nM
Kd [7, 14]: > 1000 nM
Kd [7, 15]: > 1000 nM
Kd [7, 16]: > 1000 nM
Kd [7, 17]: > 1000 nM
Kd [7, 18]: > 1000 nM
Kd [7, 19]: > 1000 nM
Kd [7, 20]: > 1000 nM
Kd [8, 21]: > 1000 nM
Kd [8, 22]: > 1000 nM
Kd [8, 23]: > 1000 nM
Kd [8, 24]: > 1000 nM
Kd [8, 25]: > 1000 nM
Kd [8, 26]: > 1000 nM
Kd [9, 12]: > 1000 nM
Kd [9, 13]: > 1000 nM
Kd [9, 14]: > 1000 nM
Kd [9, 15]: > 1000 nM
Kd [9, 16]: > 1000 nM
Kd [9, 17]: > 1000 nM
Kd [9, 18]: > 1000 nM
Kd [9, 19]: > 1000 nM
Kd [9, 20]: > 1000 nM
Kd [10, 12]: > 1000 nM
Kd ([10]; 4°C, C-terminal rhodamine design, repeat 1): 200 to 1000 nM
Kd ([10]; 4°C, C-terminal rhodamine design, repeat 2): > 1000 nM
Kd [10, 15]: > 1000 nM
Kd [10, 17]: > 1000 nM
Kd [10, 18]: > 1000 nM
Kd [10, 19]: > 1000 nM
Kd ([10]; 37°C, C-terminal rhodamine design, repeat 1): > 1000 nM
Kd ([10]; 37°C, C-terminal rhodamine design, repeat 2): > 1000 nM
Kd [10, 20]: > 1000 nM
Kd [11, 12]: > 1000 nM
Kd [11, 13]: > 1000 nM
Kd [11, 14]: > 1000 nM
Kd [11, 15]: > 1000 nM
Kd [11, 16]: > 1000 nM
Kd [11, 17]: > 1000 nM
Kd [11, 18]: > 1000 nM
Kd [11, 19]: > 1000 nM
Kd [11, 20]: > 1000 nM
Sequence: EREAQLENRVAHLKEKNQELKAQNLHLKEALSEAQNRNQELKNDA [XBP1-d1]

— paper PMC4335062, “Data-Driven Prediction and Design of bZIP Coiled-Coil Interactions” (PLoS Computational Biology, 2015)
